These results are taken from patent US20250134109A1, “Antimicrobial, Antiviral and Antifungal Articles and Methods of Producing Such Articles” (Cupron, Inc., priority 2021, published 2025).

This data set in a line: Copper ion release from 1.0μ particles of various copper compounds over exposure cycles. The format is physicochemical. The source says:
In many embodiments, it is possible to provide ion release rates that are tailored to the specific application. For example, embodiments include articles that comprise first particles having a first ion release rate and second particles having a second ion release rate.
The ion release rates listed may be considered to be an average ion release rate of a plurality of particles or powder having an average particle size of 1 micron also. […]

As to `O=S(=O)([O-])[O-].[Cu+2]` [CuSO4, copper sulfate], under “as shown in Table 1”, the “number of exposures in which copper ions are released into a fluid” value is listed as “less than five exposures”. The “Copper ion release from 1.0μ particles” value is 100.0 ppm (exposure cycle 0); 0.0 ppm (exposure cycle 5); 0.0 ppm (exposure cycle 10); 0.0 ppm (exposure cycle 15); 0.0 ppm (exposure cycle 20); 0.0 ppm (exposure cycle 25). Moreover, the “Copper ion release from 1.0μ particles” value (exposure cycle 30) is recorded as 0.0 ppm; the “Copper ion release from 1.0μ particles” value (exposure cycle 35) was found to be 0.0 ppm; the “Copper ion release from 1.0μ particles” value (exposure cycle 40) was found to be 0.0 ppm; the “Copper ion release from 1.0μ particles” value (exposure cycle 45) turned out to be 0.0 ppm; the “Copper ion release from 1.0μ particles” value (exposure cycle 50) amounted to 0.0 ppm.

Turning to `[Cu+].[I-]` [Cul, cuprous iodide], the “Copper ion release from 1.0μ particles” value by setting is: (exposure cycle 0) 6.0 ppm; (exposure cycle 5) 3.0 ppm; (exposure cycle 10) 1.5 ppm; (exposure cycle 15) 0.7 ppm; (exposure cycle 20) 0.4 ppm; (exposure cycle 25) 0.2 ppm. Further, the “Copper ion release from 1.0μ particles” value (exposure cycle 30) is 0.1 ppm; the “Copper ion release from 1.0μ particles” value (exposure cycle 35) is recorded as 0.0 ppm; the “Copper ion release from 1.0μ particles” value (exposure cycle 40) is given as 0.0 ppm; the “Copper ion release from 1.0μ particles” value (exposure cycle 45) turned out to be 0.0 ppm; the “Copper ion release from 1.0μ particles” value (exposure cycle 50) was found to be 0.0 ppm.

Regarding copper sulfide [Cu2S], the “Copper ion release from 1.0μ particles” value (exposure cycle 0) worked out at 0.5 ppm; the “Copper ion release from 1.0μ particles” value (exposure cycle 5) turned out to be 0.5 ppm; the “Copper ion release from 1.0μ particles” value (exposure cycle 10) is listed as 0.5 ppm; the “Copper ion release from 1.0μ particles” value (exposure cycle 15) is on record as 0.5 ppm; the “Copper ion release from 1.0μ particles” value (exposure cycle 20) amounted to 0.5 ppm; the “Copper ion release from 1.0μ particles” value (exposure cycle 25) worked out at 0.5 ppm. In addition, the “Copper ion release from 1.0μ particles” value was found to be 0.5 ppm (exposure cycle 30); 0.5 ppm (exposure cycle 35); 0.5 ppm (exposure cycle 40); 0.5 ppm (exposure cycle 45); 0.5 ppm (exposure cycle 50).

With cuprous thiocyanate [CuSCN], the “Copper ion release from 1.0μ particles” value (exposure cycle 0) is 4.0 ppm; the “Copper ion release from 1.0μ particles” value (exposure cycle 5) is 2.7 ppm; the “Copper ion release from 1.0μ particles” value (exposure cycle 10) came out at 1.8 ppm; the “Copper ion release from 1.0μ particles” value (exposure cycle 15) amounted to 1.3 ppm; the “Copper ion release from 1.0μ particles” value (exposure cycle 20) was determined as 0.9 ppm; the “Copper ion release from 1.0μ particles” value (exposure cycle 25) came to 0.6 ppm. Besides, the “Copper ion release from 1.0μ particles” value is, setting by setting: (exposure cycle 30) 0.4 ppm; (exposure cycle 35) 0.3 ppm; (exposure cycle 40) 0.2 ppm; (exposure cycle 45) 0.1 ppm; (exposure cycle 50) 0.0 ppm.
